From PubChem BioAssay AID1919000 (Molecular Pharmacology Branch, DTP, NCI, 2023)
Several values for one entry are separate records, joined by “and”; a condition that tells them apart may be missing. Equal entries are not always repeated.

System: 653999-131-R-J2-PDC complex spheroids, growth % test/control
Test: Anticancer human tumor 653999-131-R-J2-PDC patient-derived lung adenocarcinoma cell line growth inhibition [AhR]
Conditions: for viability, T/C: stronger effect = lower value
Procedure, shortened: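 Agents were dosed in half-log steps down from roughly clinical Cmax, or from 10 microM where Cmax was unknown, alone and with AhR antagonists. Read-out: percent test/control growth of tumor spheroids containing HUVEC and MSC stromal cells.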

[1] = curve of first compound, second compound 0.1 µM
[2] = curve of first compound, second compound 0.316 µM
[3] = curve of first compound, second compound 1 µM
[4] = curve of first compound, second compound 3.16 µM
[5] = curve of first compound, second compound 10 µM
[6] = second compound 0.1 µM, first compound 0.0316 µM
[7] = second compound 0.1 µM, first compound 0.1 µM
[8] = second compound 0.1 µM, first compound 0.316 µM
[9] = second compound 0.1 µM, first compound 1 µM
[10] = second compound 0.316 µM, first compound 0.0316 µM
[11] = second compound 0.316 µM, first compound 0.1 µM
[12] = second compound 0.316 µM, first compound 0.316 µM
[13] = second compound 0.316 µM, first compound 1 µM
[14] = second compound 1 µM, first compound 0.0316 µM
[15] = second compound 1 µM, first compound 0.1 µM
[16] = second compound 1 µM, first compound 0.316 µM
[17] = second compound 1 µM, first compound 1 µM
[18] = second compound 3.16 µM, first compound 0.0316 µM
[19] = second compound 3.16 µM, first compound 0.1 µM
[20] = second compound 3.16 µM, first compound 0.316 µM
[21] = second compound 3.16 µM, first compound 1 µM
[22] = second compound 10 µM, first compound 0.0316 µM
[23] = second compound 10 µM, first compound 0.1 µM
[24] = second compound 10 µM, first compound 0.316 µM
[25] = second compound 10 µM, first compound 1 µM
[26] = second compound 0.1 µM, first compound 3.16 µM
[27] = second compound 0.1 µM, first compound 10 µM
[28] = second compound 0.316 µM, first compound 3.16 µM
[29] = second compound 0.316 µM, first compound 10 µM
[30] = second compound 1 µM, first compound 3.16 µM
[31] = second compound 1 µM, first compound 10 µM
[32] = second compound 3.16 µM, first compound 3.16 µM
[33] = second compound 3.16 µM, first compound 10 µM
[34] = second compound 10 µM, first compound 3.16 µM
[35] = second compound 10 µM, first compound 10 µM
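Note: spheroids exposed to agents for seven days.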
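Throughout, for viability, T/C: 100% = DMSO vehicle control viability.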

SMILES	IC50 [1]	IC50 [2]	IC50 [3]	IC50 [4]	IC50 [5]	viability, T/C [6]	viability, T/C [7]	viability, T/C [8]	viability, T/C [9]	viability, T/C [10]	viability, T/C [11]	viability, T/C [12]	viability, T/C [13]	viability, T/C [14]	viability, T/C [15]	viability, T/C [16]	viability, T/C [17]	viability, T/C [18]	viability, T/C [19]	viability, T/C [20]	also measured
Nc1ncn(C2CC(O)C(CO)O2)c(=O)n1 (configuration not stated) + CC(CO)NC(=O)c1cc(-c2ccc(Cl)cc2)nn(-c2cnn(C)c2)c1=O	> 1 µM	> 1 µM	> 1 µM	> 1 µM	> 1 µM	103%	89.4%	84.5%	79.9%	118%	89.8%	91.3%	83%	122%	109%	88.4%	86.4%	119%	110%	90.9%	viability, T/C (second compound 0.1 µM, first compound 0.00316 µM): 106%; viability, T/C (second compound 0.1 µM, first compound 0.01 µM): 110%; viability, T/C (second compound 0.316 µM, first compound 0.00316 µM): 106%; viability, T/C (second compound 0.316 µM, first compound 0.01 µM): 110%; viability, T/C (second compound 1 µM, first compound 0.00316 µM): 104%; viability, T/C (second compound 1 µM, first compound 0.01 µM): 108%; viability, T/C (second compound 3.16 µM, first compound 0.00316 µM): 106%; viability, T/C (second compound 3.16 µM, first compound 0.01 µM): 111%; viability, T/C [21]: 87.8%; viability, T/C (second compound 10 µM, first compound 0.00316 µM): 117%; viability, T/C (second compound 10 µM, first compound 0.01 µM): 116%; viability, T/C [22]: 109%; viability, T/C [23]: 126%; viability, T/C [24]: 99%; viability, T/C [25]: 109%
COc1cc(C2c3cc4c(cc3C(OC3OC5COC(C)OC5C(O)C3O)C3COC(=O)C23)OCO4)cc(OC)c1O (configuration not stated) + CC(CO)NC(=O)c1cc(-c2ccc(Cl)cc2)nn(-c2cnn(C)c2)c1=O	1.27 µM	0.894 µM	0.944 µM	0.823 µM	0.846 µM	87.5%	79.2%	73.9%	51.9%	82.3%	85.8%	63.5%	48.4%	86.5%	80.2%	77.2%	48%	79.4%	80.9%	72.5%	viability, T/C [26]: 37.8%; viability, T/C [27]: 28.9%; viability, T/C [28]: 36.5%; viability, T/C [29]: 26.6%; viability, T/C [30]: 34.7%; viability, T/C [31]: 30.2%; viability, T/C [21]: 44.1%; viability, T/C [32]: 42.8%; viability, T/C [33]: 28.8%; viability, T/C [22]: 83.2%; viability, T/C [23]: 83%; viability, T/C [24]: 62.6%; viability, T/C [25]: 49.4%; viability, T/C [34]: 31.6%; viability, T/C [35]: 25.6%
COc1cc(Nc2ncc3c(n2)-c2ccc(Cl)cc2C(c2c(F)cccc2OC)=NC3)ccc1C(=O)O + Cc1cncc(-c2nc(NCCc3c[nH]c4ccccc34)c3ncn(C(C)C)c3n2)c1	> 10 µM	> 10 µM	> 10 µM	> 10 µM	> 10 µM	82.1%	75.4%	66.3%	63.3%	78.7%	67.7%	66.6%	63.2%	91%	78.6%	80%	68.2%	96.7%	86.4%	78.6%	viability, T/C [26]: 58.3%; viability, T/C [27]: 55.5%; viability, T/C [28]: 60.6%; viability, T/C [29]: 54.4%; viability, T/C [30]: 61.9%; viability, T/C [31]: 57.8%; viability, T/C [21]: 73.4%; viability, T/C [32]: 73.1%; viability, T/C [33]: 64.7%; viability, T/C [22]: 65.5%; viability, T/C [23]: 49.9%; viability, T/C [24]: 57.9%; viability, T/C [25]: 49.9%; viability, T/C [34]: 55.5%; viability, T/C [35]: 64.4%
COc1ccc([C@@H](O)c2cc(-c3ncnc4cc(N5CCOCC5)ccc34)c(F)cc2Cl)nn1																					viability, T/C (compound 0.0316 µM): 112% and 97% and 106%; viability, T/C (compound 0.1 µM): 105% and 114% and 103%; viability, T/C (compound 0.316 µM): 100% and 91.4% and 81.3%; viability, T/C (compound 1 µM): 90.5% and 90.1% and 83.8%; viability, T/C (compound 3.16 µM): 66.2% and 61.9% and 69.9%; viability, T/C (compound 10 µM): 44.8% and 45.4% and 42.3%; IC50 (curve of compound): 7.57 µM and 7.28 µM and 7.56 µM
